The source of these data is patent US20040248887A1, “Inhibitors of cathepsin S” (IRM LLC, priority 2003, published 2004).

For the assay, the target named is Cathepsin S (Homo sapiens, UniProt P25774). Put plainly: Cathepsin S inhibition, fluorogenic peptide substrate kinetic assay. Type of assay: biochemical. Conditions: Table II; Cathepsin S inhibition constant, pH5.5; read-out: Ki Cat. S. Put shortly:
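Reactions were started with 50 μM (final) acetyl-His-Pro-Val-Lys-aminocarbamoylcoumarin, and hydrolysis was followed by fluorescence (ex 380/em 450 nm). Apparent inhibition constants from enzyme progress curves were converted to Ki for competitive inhibitors using substrate concentration and Km.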

Chain of Cathepsin S (P25774 115-331, species assumed): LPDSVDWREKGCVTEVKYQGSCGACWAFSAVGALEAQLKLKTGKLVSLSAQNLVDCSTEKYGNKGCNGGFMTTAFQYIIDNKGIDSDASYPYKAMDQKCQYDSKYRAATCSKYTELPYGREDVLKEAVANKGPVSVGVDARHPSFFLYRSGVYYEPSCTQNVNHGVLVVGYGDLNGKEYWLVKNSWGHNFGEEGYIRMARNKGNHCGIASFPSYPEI

The term Ki denotes a measure of affinity in units of concentration, obtained from inhibition or displacement. With `COc1ccc(NC(C)CNC(=O)[C@H](CC(C)C)NC(=O)c2cccc(C)c2)cc1` (mixture of isomers) [Compound 20, N-{1-(S)-[2-(4-Methoxy-phenylamino)-propylcarbamoyl]-3-methyl-butyl}-3-methyl-benzamide], the Ki was < 10000 nM. In the case of `COCC(=O)N[C@@H](CC1CCCCC1)C(=O)N[C@@H](C)CNc1ccc(OC(F)(F)F)cc1` [Compound 124, 3-Cyclohexyl-2-(S)-(2-methoxy-acetylamino)-N-[1-(S)-methyl-2-(4-trifluoromethoxy-phenylamino)-ethyl]-propionamide] it was < 100 nM; in that of `C[C@@H](C(=O)N[C@@H](CCC1CCCCC1)C(=O)NCCN1CCc2cc(F)ccc21)c1ccccc1` [Compound 102, 4-Cyclohexyl-N-[2-(5-fluoro-2,3-dihydro-indol-1-yl)-ethyl]-2-(S)-(2-(R)-phenyl-propionylamino)-butyramide], < 100 nM; in that of `C[C@@H](CNc1ccc(OC(F)(F)F)cc1)NC(=O)[C@H](CC1CCCCC1)NC(=O)c1ccc(-c2ccc(F)cc2)o1` [Compound 103, 5-(4-Fluoro-phenyl)-furan-2-carboxylic acid {2-cyclohexyl-1-(S)-[1-(S)-methyl-2-(4-trifluoromethoxy-phenylamino)-ethylcarbamoyl]-ethyl}-amide], < 100 nM. Turning to `C[C@@H](CNc1ccc(S(C)(=O)=O)cc1)NC(=O)[C@H](CC1CCCCC1)NC(=O)c1ccc(-c2ccc(F)cc2)o1` [Compound 107, 5-(4-Fluoro-phenyl)-furan-2-carboxylic acid {2-cyclohexyl-1-(S)-[2-(4-methanesulfonyl-phenylamino)-1-(S)-methyl-ethylcarbamoyl]-ethyl}-amide], the Ki was < 100 nM. In the case of `Cn1cnc(S(=O)(=O)N[C@@H](CC2CCCCC2)C(=O)NCCN2CCc3cc(F)ccc32)c1` [Compound 255, (S)-3-Cyclohexyl-N-[2-(5-fluoro-2,3-dihydro-indol-1-yl)-ethyl]-2-(1-methyl-1H-imidazole-4-sulfonylamino)-propionamide] it was < 1000 nM. Regarding `COc1cccc(S(=O)(=O)N[C@@H](CC2CCCCC2)C(=O)NCCN2CCc3cc(F)ccc32)c1` [Compound 245, (S)-3-Cyclohexyl-N-[2-(5-fluoro-2,3-dihydro-indol-1-yl)-ethyl]-2-(3-methoxy-benzenesulfonylamino)-propionamide], the Ki was < 1000 nM. With `C[C@@H](CNc1ccccc1F)NC(=O)[C@H](CC1CCCCC1)NC(=O)c1ccc(-c2cccc(F)c2)o1` [Compound 95, 5-(3-Fluoro-phenyl)-furan-2-carboxylic acid {2-cyclohexyl-1-(S)-[2-(2-fluoro-phenylamino)-1-(S)-methyl-ethylcarbamoyl]-ethyl}-amide], the Ki is < 100 nM.

As for `CSc1ccc(NC[C@H](C)NC(=O)[C@H](CC2CCCCC2)NC(=O)c2ccc(-c3cccc(F)c3)o2)cc1` [Compound 117, 5-(3-Fluoro-phenyl)-furan-2-carboxylic acid {2-cyclohexyl-1-(S)-[1-(S)-methyl-2-(4-methylsulfanyl-phenylamino)-ethylcarbamoyl]-ethyl}-amide], the Ki was < 100 nM. As to `O=C(N[C@@H](CC1CCCCC1)C(=O)NCCN1CCc2cc(F)ccc21)C1CCN(S(=O)(=O)c2ccc(F)cc2)CC1` [Compound 66, 1-(4-Fluoro-benzenesulfonyl)-piperidine-4-carboxylic acid (S)-{2-cyclohexyl-1-[2-(5-fluoro-2,3-dihydro-indol-1-yl)-ethylcarbamoyl]-ethyl}-amide], the Ki was < 1000 nM.

Take `Cc1nnc(-c2cccc(S(=O)(=O)N[C@@H](CC3CCCCC3)C(=O)NCCN3CCc4cc(F)ccc43)c2)o1` [Compound 233, (S)-3-Cyclohexyl-N-[2-(5-fluoro-2,3-dihydro-indol-1-yl)-ethyl]-2-[3-(5-methyl-[1,3,4]oxadiazol-2-yl)-benzenesulfonylamino]-propionamide]: the Ki was < 100 nM. In the case of `Cc1cccc(C(=O)N[C@H](C(=O)NCCN2CCc3cc(F)ccc32)C2CCCCC2)c1` [Compound 193, N-((S)-(2-(5-fluoroindolin-1-yl)ethylcarbamoyl)(cyclohexyl)methyl)-3-methylbenzamide] it was < 1000 nM; in that of `COc1ccc(NC[C@H](C)NC(=O)[C@H](CC2CCCCC2)NC(=O)c2ccc(-c3ccc(F)cc3)o2)cc1` [Compound 105, 5-(4-Fluoro-phenyl)-furan-2-carboxylic acid {2-cyclohexyl-1-(S)-[2-(4-methoxy-phenylamino)-1-(S)-methyl-ethylcarbamoyl]-ethyl}-amide], < 100 nM; in that of `C[C@@H](CNc1ccc(S(C)(=O)=O)cc1)NC(=O)[C@H](CC1CCCCC1)NC(=O)c1ccc(-c2cccc(F)c2)o1` [Compound 89, 5-(3-Fluoro-phenyl)-furan-2-carboxylic acid {2-cyclohexyl-1-(S)-[2-(4-methanesulfonyl-phenylamino)-1-(S)-methyl-ethylcarbamoyl]-ethyl}-amide], < 100 nM. In the case of `Cc1cc(NC[C@H](C)NC(=O)[C@H](CC2CCCCC2)NC(=O)c2ccc(-c3cccc(F)c3)o2)no1` [Compound 133, 5-(3-Fluoro-phenyl)-furan-2-carboxylic acid {2-cyclohexyl-1-(S)-[1-(S)-methyl-2-(5-methyl-isoxazol-3-ylamino)-ethylcarbamoyl]-ethyl}-amide] it was < 1000 nM; in that of `O=C(N[C@H](C(=O)N[C@H](CO)CN1CCc2cc(F)ccc21)c1ccc(Cl)cc1Cl)c1ccc(F)c(F)c1` [Compound 214, (S,S)-N-((3-(5-fluoroindolin-1-yl)-1-hydroxypropan-2-ylcarbamoyl)(2,4-dichlorophenyl)methyl)-3,4-difluorobenzamide], < 1000 nM; in that of `COc1c(C)cc(NC[C@H](C)NC(=O)[C@H](CC2CCCCC2)NC(=O)c2ccc(-c3cccc(F)c3)o2)cc1C` [Compound 115, 5-(3-Fluoro-phenyl)-furan-2-carboxylic acid {2-cyclohexyl-1-(S)-[2-(4-methoxy-3,5-dimethyl-phenylamino)-1-(S)-methyl-ethylcarbamoyl]-ethyl}-amide], < 100 nM.

Regarding `Cn1cnc(C(=O)N[C@@H](CC2CCCCC2)C(=O)NCCN2CCc3cc(F)ccc32)c1` [Compound 63, 1-Methyl-1H-imidazole-4-carboxylic acid (S)-{2-cyclohexyl-1-[2-(5-fluoro-2,3-dihydro-indol-1-yl)-ethylcarbamoyl]-ethyl}-amide], the inhibitory constant (Ki) is < 1000 nM. In the case of `O=C(NC(C(=O)N[C@@H](CO)CN1CCc2cc(F)ccc21)c1ccc(Cl)cc1Cl)c1ccc(F)c(F)c1` (mixture of isomers) [Compound 208, N-(R,S)-((3-(5-fluoroindolin-1-yl)-1-hydroxypropan-2-(R)-ylcarbamoyl)(2,4-dichlorophenyl)methyl)-3,4-difluorobenzamide] it was < 100 nM.

Turning to `COc1cccc(C(=O)N[C@@H](CC(C)(C)C)C(=O)N[C@@H](CO)CN2CCc3cc(F)ccc32)c1` [Compound 156, N-{1-(S)-[2-(5-Fluoro-2,3-dihydro-indol-1-yl)-1-(R)-hydroxymethyl-ethylcarbamoyl]-3,3-dimethyl-butyl}-3-methoxy-benzamide], the Ki was < 100 nM. In the case of `O=C(N[C@@H](CC1CCCCC1)C(=O)NCCN1CCc2cc(F)ccc21)c1ccc(Oc2ccccc2)cc1` [Compound 4, N-(S)-{2-cyclohexyl-1-[2-(5-fluoro-2,3-dihydro-indol-1-yl)-ethylcarbamoyl]-ethyl}-4-phenoxy-benzamide], the Ki is < 100 nM. In the case of `C[C@@H](CNc1cc(F)cc(F)c1)NC(=O)[C@H](CC1CCCCC1)NC(=O)c1ccc(-c2cccc(F)c2)o1` [Compound 87, 5-(3-Fluoro-phenyl)-furan-2-carboxylic acid {2-cyclohexyl-1-(S)-[2-(3,5-difluoro-phenylamino)-1-(S)-methyl-ethylcarbamoyl]-ethyl}-amide] it was < 100 nM. Turning to `C[C@@H](CN1CC(C)(C)c2cc(F)ccc21)NC(=O)[C@H](CC1CCCCC1)NC(=O)O[C@@H]1CCOC1` [Compound 216, {2-Cyclohexyl-1-(S)-[2-(5-fluoro-3,3-dimethyl-2,3-dihydro-indol-1-yl)-1-(S)-methyl-ethylcarbamoyl]-ethyl}-carbamic acid (R)-tetrahydrofaran-3-yl ester], the Ki is < 100 nM. In the case of `C[C@@H](CNc1ccc(OC(F)(F)F)cc1)NC(=O)[C@H](CC1CCCCC1)NS(=O)(=O)c1cccc(OC(F)(F)F)c1` [Compound 182, (S,S)-3-Cyclohexyl-N-[1-methyl-2-(4-trifluoromethoxy-phenylamino)-ethyl]-2-(3-trifluoromethoxy-benzenesulfonylamino)-propionamide] it was < 100 nM; in that of `C[C@@H](CNc1ccc(OC(F)(F)F)cc1)NC(=O)[C@H](CC1CCCCC1)NC(=O)C1CCOCC1` [Compound 135, Tetrahydropyran-4-carboxylic acid {2-cyclohexyl-1-(S)-[1-(S)-methyl-2-(4-trifluoromethoxy-phenylamino)-ethylcarbamoyl]-ethyl}-amide], < 100 nM; in that of `C[C@@H](CN1CCc2cc(F)ccc21)NC(=O)[C@H](CC1CCCCC1)NS(=O)(=O)c1ccccc1` [Compound 264, (S,S)-2-Benzenesulfonylamino-3-cyclohexyl-N-[2-(5-fluoro-2,3-dihydro-indol-1-yl)-1-methyl-ethyl]-propionamide], < 100 nM. Turning to `Cc1cccc(C(=O)N[C@@H](CC(C)C)C(=O)N[C@@H](CCC(=O)O)CN2CCc3cc(F)ccc32)c1` [Compound 43, (S,S)-5-(5-Fluoro-2,3-dihydro-indol-1-yl)-4-[4-methyl-2-(3-methyl-benzoylamino)-pentanoylamino]-pentanoic acid], the Ki is < 100 nM. In the case of `Cc1ccc(C(C)C(=O)N[C@@H](CC2CCCCC2)C(=O)NCCN2CCc3cc(F)ccc32)cc1` (stereo partly drawn) [Compound 60, N-{2-cyclohexyl-1-(S)-[2-(5-fluoro-2,3-dihydro-indol-1-yl)-ethylcarbamoyl]-ethyl}-2-p-tolyl-propionamide] it was < 100 nM.
